Test results: patent US20240139216A1, “STABLE ORAL CANNABIDIOL COMPOSITIONS” (CARDIOL THERAPEUTICS INC., priority 2020, published 2024)

Legend:
[1] = molecular target: CB2 receptor (Homo sapiens, UniProt P34972); details: Proc Natl Acad Sci USA 2008; 105(26):9099-104; cited from earlier work
[2] = Solubility of CBD in BCP; format: physicochemical; details: in 1 mL of BCP
Experimental: For example, at least 300 mg of CBD can be dissolved in 1 mL of BCP. The enhanced stability of the CBD provides a composition with an acceptable shelf life and which can provide consistency in dosing and enhanced safety.

Sequence of CB2 receptor (P34972 whole entry): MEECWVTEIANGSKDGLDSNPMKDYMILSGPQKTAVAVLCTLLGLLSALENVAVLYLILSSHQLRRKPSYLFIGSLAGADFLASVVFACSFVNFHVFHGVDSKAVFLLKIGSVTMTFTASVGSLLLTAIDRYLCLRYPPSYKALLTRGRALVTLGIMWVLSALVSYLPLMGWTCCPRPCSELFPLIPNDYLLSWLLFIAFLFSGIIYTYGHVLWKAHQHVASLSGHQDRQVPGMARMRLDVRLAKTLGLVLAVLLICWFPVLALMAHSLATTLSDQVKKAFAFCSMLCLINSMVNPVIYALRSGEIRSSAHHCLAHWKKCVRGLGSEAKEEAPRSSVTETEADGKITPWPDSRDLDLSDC

| SMILES | binding to the CB2 receptor [1] | functional activity at the CB2 receptor [1] | amount of CBD that can be dissolved in BCP [2] |
| --- | --- | --- | --- |
| C=C1CC/C=C(\C)CC[C@@H]2[C@@H]1CC2(C)C (relative stereo) [β-caryophyllene, trans-(1R,9S)-8-Methylene-4,11,11-trimethylbicyclo[7.2.0]undec-4-ene] | selectively binds to the CB2 receptor | functional CB2 agonist |  |
| C=C(C)[C@@H]1CCC(C)=C[C@H]1c1c(O)cc(CCCCC)cc1O [CBD, cannabidiol] |  |  | at least 300 mg |
